# Measured values: ChEMBL document CHEMBL1147106, “Antistaphylococcal activity of DX-619 alone and in combination with vancomycin, teicoplanin, and linezolid assessed by time-kill synergy testing” (2007)
# Assays:
# Assay type in all cases: functional
# Staphylococcus aureus [1] = assay: Antistaphylococcal activity against quinolone-susceptible methicillin-resistant Staphylococcus aureus
# Staphylococcus aureus [2] = assay: Antistaphylococcal activity against vancomycin-intermediate Staphylococcus aureus 507
# Staphylococcus aureus [3] = assay: Antistaphylococcal activity against vancomycin-intermediate Staphylococcus aureus
# Staphylococcus aureus [4] = assay: Antistaphylococcal activity against vancomycin-intermediate Staphylococcus aureus 504
# Staphylococcus aureus [5] = assay: Antistaphylococcal activity against vancomycin-resistant Staphylococcus aureus 509
# Staphylococcus aureus [6] = assay: Antistaphylococcal activity against quinolone-resistant Staphylococcus aureus 261
# Staphylococcus aureus [7] = assay: Antistaphylococcal activity against quinolone-resistant Staphylococcus aureus 242
# Staphylococcus aureus [8] = assay: Antistaphylococcal activity against vancomycin-intermediate Staphylococcus aureus 555
# Staphylococcus aureus [9] = assay: Antistaphylococcal activity against vancomycin-intermediate Staphylococcus aureus 506
# Staphylococcus aureus [10] = assay: Antistaphylococcal activity against vancomycin-resistant Staphylococcus aureus 510
# Staphylococcus aureus [11] = assay: Antistaphylococcal activity against quinolone-resistant Staphylococcus aureus 508
# Staphylococcus aureus [12] = assay: Antistaphylococcal activity against vancomycin-resistant Staphylococcus aureus 512
# Staphylococcus aureus [13] = assay: Antistaphylococcal activity against vancomycin-intermediate Staphylococcus aureus 505
# Staphylococcus aureus [14] = assay: Antistaphylococcal activity against quinolone-resistant Staphylococcus aureus 241
# Staphylococcus aureus [15] = assay: Antistaphylococcal activity against methicillin-sensitive Staphylococcus aureus
# Staphylococcus aureus [16] = assay: Antistaphylococcal activity against vancomycin-resistant Staphylococcus aureus
# Staphylococcus aureus [17] = assay: Antistaphylococcal activity against quinolone and methicillin-resistant Staphylococcus aureus
# Staphylococcus aureus [18] = assay: Antistaphylococcal activity against vancomycin-intermediate Staphylococcus aureus 508
Structure (SMILES),MIC (Staphylococcus aureus [1]) [ng/mL],MIC (Staphylococcus aureus [2]) [µg/mL],MIC (Staphylococcus aureus [3]) [µg/mL],MIC (Staphylococcus aureus [4]) [µg/mL],MIC (Staphylococcus aureus [5]) [µg/mL],MIC (Staphylococcus aureus [6]) [ng/mL],MIC (Staphylococcus aureus [7]) [ng/mL],MIC (Staphylococcus aureus [8]) [µg/mL],MIC (Staphylococcus aureus [9]) [µg/mL],MIC (Staphylococcus aureus [10]) [µg/mL],MIC (Staphylococcus aureus [11]) [ng/mL],MIC (Staphylococcus aureus [12]) [µg/mL],MIC (Staphylococcus aureus [13]) [ng/mL],MIC (Staphylococcus aureus [14]) [ng/mL],MIC (Staphylococcus aureus [15]) [ng/mL],MIC (Staphylococcus aureus [16]) [µg/mL],MIC (Staphylococcus aureus [17]) [µg/mL],MIC (Staphylococcus aureus [18]) [ng/mL]
COc1c(N2CC[C@@H](C3(N)CC3)C2)ccc2c(=O)c(C(=O)O)cn([C@@H]3C[C@@H]3F)c12,8,0.06,0.016,0.06,0.06,4,4,0.06,0.06,0.06,4,0.06,4,4,4,0.125,0.06,4
C[C@H]1COc2c(N3CCN(C)CC3)c(F)cc3c(=O)c(C(=O)O)cn1c23.C[C@H]1COc2c(N3CCN(C)CC3)c(F)cc3c(=O)c(C(=O)O)cn1c23.O [LEVOFLOXACIN],–,–,–,–,–,–,–,–,–,–,–,–,–,–,–,–,≥ 4,–
CN[C@H](CC(C)C)C(=O)N[C@H]1C(=O)N[C@@H](CC(N)=O)C(=O)N[C@H]2C(=O)N[C@H]3C(=O)N[C@H](C(=O)N[C@H](C(=O)O)c4cc(O)cc(O)c4-c4cc3ccc4O)[C@H](O)c3ccc(c(Cl)c3)Oc3cc2cc(c3O[C@@H]2O[C@H](CO)[C@@H](O)[C@H](O)[C@H]2O[C@H]2C[C@](C)(N)[C@H](O)[C@H](C)O2)Oc2ccc(cc2Cl)[C@H]1O [VANCOMYCIN],–,–,–,–,–,–,–,–,–,0.05,–,–,–,–,–,32,–,–
